Test results from ChEMBL document CHEMBL1124701, “Some benzyl-substituted imidazoles, triazoles, tetrazoles, pyridinethiones, and structural relatives as multisubstrate inhibitors of dopamine beta-hydroxylase. 4. Structure-activity relationships at the copper binding site” (J Med Chem, 1990).

The compounds below were run against T1, Dopamine beta-hydroxylase (Bos taurus) (UniProt P15101) (assay: Percent inhibition against bovine dopamine beta-hydroxylase (DBH) at 10e-5 M concentration).
T1 sequence (whole entry): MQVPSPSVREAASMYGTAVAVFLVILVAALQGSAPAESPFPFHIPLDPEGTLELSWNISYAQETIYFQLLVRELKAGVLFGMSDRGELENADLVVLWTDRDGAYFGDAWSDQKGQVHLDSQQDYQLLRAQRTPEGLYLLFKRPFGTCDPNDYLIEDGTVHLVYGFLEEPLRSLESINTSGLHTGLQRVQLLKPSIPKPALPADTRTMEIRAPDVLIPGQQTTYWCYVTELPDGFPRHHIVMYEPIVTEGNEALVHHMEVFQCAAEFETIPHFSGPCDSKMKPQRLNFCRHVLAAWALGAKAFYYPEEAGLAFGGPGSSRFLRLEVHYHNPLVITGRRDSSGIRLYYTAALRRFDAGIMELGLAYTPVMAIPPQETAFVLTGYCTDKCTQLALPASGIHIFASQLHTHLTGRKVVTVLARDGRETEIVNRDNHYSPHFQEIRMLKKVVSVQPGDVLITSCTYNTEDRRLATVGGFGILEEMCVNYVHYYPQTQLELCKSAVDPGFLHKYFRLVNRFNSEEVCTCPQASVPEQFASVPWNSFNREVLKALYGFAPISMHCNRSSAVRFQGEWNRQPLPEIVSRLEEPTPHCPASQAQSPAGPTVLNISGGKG

First: S=c1ncccn1Cc1ccccc1
Second: Fc1cccc(Cn2cccnc2=S)c1
The inhibition of the first is lower: 5% for the first, 15% for the second.

Going from `Sc1ncccc1Cc1ccccc1` to `Fc1cccc(Cc2cccnc2S)c1`, the inhibition rises from 26% to 34%.

Going from `S=C1NCCN1Cc1ccccc1` to `Sc1cnnn1Cc1ccccc1`, the inhibition falls from 5% to 0%.

Each compound was assayed against T2, Dopamine beta-hydroxylase (Bos taurus, UniProt P15101) (assay: Inhibitory activity was determined against bovine dopamine beta-hydroxylase (DBH)).
T2 sequence (P15101 whole entry): T1 sequence (whole entry)

First: Fc1cccc(Cn2ncnc2S)c1
Second: Sc1ncnn1Cc1ccccc1
The IC50 of the first is 5-fold lower: 15 µM for the first, 75 µM for the second.

First: Fc1cc(F)cc(Cn2cccnc2=S)c1
Second: Fc1cc(F)cc(Cn2nc[nH]c2=S)c1
The IC50 of the first is 2.2-fold lower: 2.8 µM for the first, 6.2 µM for the second. The first is the more potent here.

Going from `Sc1nnnn1Cc1ccccc1` to `Fc1cc(F)cc(Cn2nnnc2S)c1`, the IC50 falls from 16 µM to 1.54 µM (10-fold).

`O=C(O)c1nccn1Cc1ccc(O)cc1` and `NCc1nccn1Cc1ccc(O)cc1` are within 1.5-fold of each other in IC50: 112 µM for the first, 165 µM for the second.

First: Fc1cc(F)cc(Cc2cccnc2S)c1
Second: Fc1cc(F)cc(CN2CCN=C2S)c1
The IC50 of the first is 9.6-fold higher: 13.4 µM for the first, 1.4 µM for the second.

Going from `Fc1cccc(CN2CCNC2=S)c1` to `Fc1cccc(Cn2cnnc2S)c1`, the IC50 falls from 3.7 µM to 1.9 µM (1.9-fold).

Going from `Oc1c(F)cc(Cn2cnnc2S)cc1F` to `CSc1nccn1CCCc1ccc(O)cc1`, the IC50 rises from 0.035 µM to 79 µM (2300-fold). The first is the more potent here.

`O=C(O)c1nccn1Cc1ccccc1` gave an IC50 of 57 µM.

What follows are compounds tested against T1, Dopamine beta-hydroxylase (Bos taurus) (assay: Percent inhibition against bovine dopamine beta-hydroxylase (DBH) at 10e-4 M concentration).

Going from `O/N=C/c1nccn1Cc1ccccc1` to `OCc1nccn1Cc1ccccc1`, the inhibition falls from 10% to 0%.

`O=C(O)Cc1nccn1Cc1ccc(O)cc1` and `O=C(O)Cc1nccn1Cc1ccccc1` are the same in inhibition: 0% for the first, 0% for the second.

Going from `Oc1ccc(Cn2ccnc2)cc1` to `Nc1nccn1Cc1ccc(O)cc1`, the inhibition falls from 17% to 4%.
